Ends that are not written are not given here.

For three molecules, ARE activation results are on record in patent US20240189385A1, “KEAP1/NRF2 PROTEIN-LIKE POLYMERS” (Northwestern University, priority 2021, published 2024).

For the test, the system named is Antioxidant Response Element (ARE), Nrf2 antioxidant pathway. Put plainly: Antioxidant Response Element (ARE) luciferase reporter assay. The test is classed as cell-based. Particulars: 0 μM to 50 μM with respect to peptide; 24 hours; FIGS. 38A, 38B. The protocol: The Antioxidant Response Element (ARE) Luciferase Reporter HepG2 Cell line was used to probe Nrf2 antioxidant pathway activation. ARE-HepG2 cells were cultured in growth media (BPS bioscience) according to manufacturer's recommendations. […] PLPs and peptides were tested at concentrations ranging from 0 μM to 50 μM with respect to peptide along with controls (untreated and tBHQ positive control at 100 μM) in triplicate. Cells were incubated for 24 hours post-treatment. ONE-step luciferase assay reagent was added at 100 μL/well, followed by rocking at room temperature for 15 min. Luminescence was assessed using a Biotek SynergyNeo2 plate reader. Background luminescence of cell free controls wells was subtracted from test wells. ARE activation was reported as luminescence relative to the average of the untreated controls wells.
(A reporter such as luciferase makes a cellular process visible.)
As to `CC(C)C[C@H](NC(=O)[C@H](Cc1ccccc1)NC(=O)[C@H](CCC(=O)O)NC(=O)CNC(=O)[C@@H](NC(=O)[C@H](CCC(=O)O)NC(=O)[C@@H]1CCCN1C(=O)[C@H](CC(=O)O)NC(=O)[C@@H](N)CC(C)C)[C@@H](C)O)C(=O)N[C@@H](CCCNC(=N)N)C(=O)N[C@@H](CCCNC(=N)N)C(=O)N[C@@H](CCCNC(=N)N)C(=O)N[C@@H](CCCNC(=N)N)C(N)=O` [SEQ ID NO: 72], the ARE activation entry is on record as “did not activate ARE”.

For the molecule “Full Scramble PLP: full scramble polynorbornene dicarboxyimide-based brush polymer comprising SEQ ID NO: 143 (DERLERPLTRGFR) peptide monomer, Example 13 (also: part of polynorbornene dicarboxyimide-based brush polymer) [reference compound]”, the ARE activation entry was “did not activate ARE”.

As to “ScrambleR PLP: scrambleRRRR polynorbornene dicarboxyimide-based brush polymer comprising SEQ ID NO: 146 (DELEPLTGFRRRR) peptide monomer, Example 14 (also: part of polynorbornene dicarboxyimide-based brush polymer) [reference compound]”, the ARE activation result is recorded as “did not activate ARE”.
